System: σ1R
Experiment: NHP PET/MR imaging with kinetic modelling, baseline and self-blocking
Format: in vivo
Conditions: for VT, One tissue compartment model [1TCM] / VT, Two tissue compartment model [2TCM] / VT, Logan graphical method [T* = 40 min]: male NHP brain
Source text: Next, we conducted PET/MR imaging studies using [^11C]CNY‐01 in non‐human primates (NHP) to evaluate its safety and translational potential in large animals further. A 90‐minute dynamic PET scan with [^11C]CNY‐01 focusing on the head of a male rhesus monkey. We performed a full kinetic analysis with one‐ and two‐tissue compartment models (1TCM and 2TCM), as well as logan graphical analysis (LGA), using metabolite‐corrected arterial input function (AIF), similar to previous studies,^[ [44], [45] ^] to determine which model best suit kinetics of [^11C]CNY‐01. In most brain regions, 2TCM provided a better fit than 1TCM, as indicated by the Akaike information criterion (AIC) and model selection criterion (MSC) (Table 1). […] To test whether non‐parametric graphical approaches can be used for [^11C]CNY‐01, we performed LGA with an assumption of steady‐state time (T*) of 40 mins (Table 1). […] For voxel‐wise estimation of VT across the whole brain, we then used LGA (Figure 4A).
We also performed a self‐blocking scan for [^11C]CNY‐01, administering 0.5 mg kg^−1 of unlabeled CNY‐01 10 min before the radiotracer. The metabolism of the radiotracer in the blocking scan was similar to that of the baseline (Figure S6, Supporting Information). The radioactivity concentration was lower in arterial blood samples in the blocking scan compared to the baseline, while brain uptake was higher in the blocking scan (Figure S6, Supporting Information). […] The variation of the radiotracer plasma protein binding (fp) between baseline and blocking scan may explain our observation in a way similar to that of the previous study.^[ [46] ^] Nonetheless, due to this study's lack of fp data, the exact explanation for our observation remains to be determined further.
The PET/MR imaging protocol in non‐human primates (NHP) followed our previous work.^[ [55], [56] ^] A male rhesus macaque (8.55 kg) was anesthetized with an intramuscular injection of xylazine (0.5–2.0 mg kg^−1) and ketamine (10 mg kg^−1), followed by endotracheal intubation. V‐ and A‐lines were inserted, and anesthesia was maintained using isoflurane. [^11C] CNY‐01 was administered after antecubital catheterization, with an arterial line prepared for radiometabolite analysis. In the self‐blocking scan, the same animal (6.80 kg) was scanned with a 10‐min pre‐treatment of 0.5 mg kg^−1 unlabeled CNY‐01. PET/MR imaging data were acquired using a Siemens TIM‐Trio scanner (3T) equipped with a Siemens BrainPET insert module and an in‐house‐built 8‐channel head coil. The dynamic scan began, followed by administration of [^11C] CNY‐01 (5.1 mCi). The list mode data were reconstructed using the 3D ordinary Poisson expectation‐maximization algorithm (16 subsets and 6 iterations) with detector efficiency, decay, dead time, random coincidences, scatter, and attenuation corrections with gradually increasing time frams. All images were reconstructed into 153 slices with 256 × 256 pixels and 1.25‐mm isotropic voxel size. High‐resolution structural MRI scans were acquired by using a multi‐echo magnetization‐prepared rapid gradient echo (ME‐MPRAGE) sequence with parameters as follows: TR = 2400 ms; TE1/TE2/TE3/TE4 = 1.57/3.29/5.01/6.73 ms; inversion time = 1200 ms; flip angle = 9°; spatial resolution = 1 mm isotropic.
For macaque brain PET/MR imaging analysis, we applied the INIA19 Template^[ [57] ^] and NeuroMaps Atlas in accordance with our prior work.^[ [58] ^] In brief, reconstructed PET images were registered to the INIA19 Primate Brain Atlas^[ [57] ^] with the following processing steps^[ [59] ^]: The high‐resolution T1‐weighted MR image, co‐registered with the PET image, was first affine‐registered to the INIA19 atlas. By using the same transformation, dynamic PET data was registered to the atlas. A spatial smoothing with a 6‐mm FWHM Gaussian kernel was applied to PET images. Twenty ROIs determined in the INIA19 atlas were used to derive regional TACs. […]

[1] = NAc, 10-min pretreatment of unlabeled CNY-01 (0.5 mg kg^−1)
[2] = Occg, 10-min pretreatment of unlabeled CNY-01 (0.5 mg kg^−1)
[3] = Ofc, 10-min pretreatment of unlabeled CNY-01 (0.5 mg kg^−1)
[4] = PCC, 10-min pretreatment of unlabeled CNY-01 (0.5 mg kg^−1)
[5] = Putamen, 10-min pretreatment of unlabeled CNY-01 (0.5 mg kg^−1)
[6] = Sensory, 10-min pretreatment of unlabeled CNY-01 (0.5 mg kg^−1)
[7] = Thalamus, 10-min pretreatment of unlabeled CNY-01 (0.5 mg kg^−1)
[8] = VTA, 10-min pretreatment of unlabeled CNY-01 (0.5 mg kg^−1)
[9] = WB, 10-min pretreatment of unlabeled CNY-01 (0.5 mg kg^−1)
[10] = WM, 10-min pretreatment of unlabeled CNY-01 (0.5 mg kg^−1)

## Cc1nc(-c2ccc(O[11CH3])cc2)nc(OCCCN2CCCCC2)c1Cl [[^11C]CNY-01]
Motor, baseline
  VT, One tissue compartment model [1TCM]: 6.97 mL cm^−3
  VT, Two tissue compartment model [2TCM]: 8.88 mL cm^−3
[1]
  VT, Logan graphical method [T* = 40 min]: 33.22 ml/cm^3
  VT, Two tissue compartment model [2TCM]: 26.92 ml/cm^3
NAc, baseline
  VT, Logan graphical method [T* = 40 min]: 13.11 mL cm^−3
  VT, One tissue compartment model [1TCM]: 9.85 mL cm^−3
  VT, Two tissue compartment model [2TCM]: 11.85 mL cm^−3
NHP
  nonspecific binding in blockage experiments: high nonspecific binding
NHP, speculated from pharmacokinetic characteristics
  binding to target within the imaging timeframe: predominantly irreversible
[2]
  VT, Logan graphical method [T* = 40 min]: 12.96 ml/cm^3
  VT, Two tissue compartment model [2TCM]: 11.84 ml/cm^3
Occg, baseline
  VT, Logan graphical method [T* = 40 min]: 7.07 mL cm^−3
  VT, One tissue compartment model [1TCM]: 5.24 mL cm^−3
  VT, Two tissue compartment model [2TCM]: 6.28 mL cm^−3
[3]
  VT, Logan graphical method [T* = 40 min]: 20.65 ml/cm^3
  VT, Two tissue compartment model [2TCM]: 16.68 ml/cm^3
Ofc, baseline
  VT, Logan graphical method [T* = 40 min]: 9.72 mL cm^−3
  VT, One tissue compartment model [1TCM]: 7.31 mL cm^−3
  VT, Two tissue compartment model [2TCM]: 9.24 mL cm^−3
[4]
  VT, Logan graphical method [T* = 40 min]: 27.31 ml/cm^3
  VT, Two tissue compartment model [2TCM]: 23.16 ml/cm^3
PCC, baseline
  VT, Logan graphical method [T* = 40 min]: 12.38 mL cm^−3
  VT, One tissue compartment model [1TCM]: 9.29 mL cm^−3
  VT, Two tissue compartment model [2TCM]: 14.68 mL cm^−3
[5]
  VT, Logan graphical method [T* = 40 min]: 33.81 ml/cm^3
  VT, Two tissue compartment model [2TCM]: 27.99 ml/cm^3
Putamen, baseline
  VT, Logan graphical method [T* = 40 min]: 15.02 mL cm^−3
  VT, One tissue compartment model [1TCM]: 11.56 mL cm^−3
  VT, Two tissue compartment model [2TCM]: 15.75 mL cm^−3
[6]
  VT, Logan graphical method [T* = 40 min]: 19.24 ml/cm^3
  VT, Two tissue compartment model [2TCM]: 16.21 ml/cm^3
Sensory, baseline
  VT, Logan graphical method [T* = 40 min]: 8.75 mL cm^−3
  VT, One tissue compartment model [1TCM]: 6.73 mL cm^−3
  VT, Two tissue compartment model [2TCM]: 9.33 mL cm^−3
[7]
  VT, Logan graphical method [T* = 40 min]: 30.88 ml/cm^3
  VT, Two tissue compartment model [2TCM]: 25.02 ml/cm^3
Thalamus, baseline
  VT, Logan graphical method [T* = 40 min]: 15.50 mL cm^−3
  VT, One tissue compartment model [1TCM]: 10.94 mL cm^−3
  VT, Two tissue compartment model [2TCM]: 19.46 mL cm^−3
[8]
  VT, Logan graphical method [T* = 40 min]: 26.74 ml/cm^3
  VT, Two tissue compartment model [2TCM]: 19.47 ml/cm^3
VTA, baseline
  VT, Logan graphical method [T* = 40 min]: 12.11 mL cm^−3
  VT, One tissue compartment model [1TCM]: 8.25 mL cm^−3
  VT, Two tissue compartment model [2TCM]: 11.16 mL cm^−3
WB (whole brain), baseline
  VT, Two tissue compartment model [2TCM]: 10.35 mL cm^−3
[9]
  VT, Logan graphical method [T* = 40 min]: 20.75 ml/cm^3
  VT, Two tissue compartment model [2TCM]: 16.75 ml/cm^3
WB, baseline
  VT, Logan graphical method [T* = 40 min]: 9.82 mL cm^−3
  VT, One tissue compartment model [1TCM]: 7.44 mL cm^−3
WM (white matter), baseline
  VT, Two tissue compartment model [2TCM]: 15.00 mL cm^−3
[10]
  VT, Logan graphical method [T* = 40 min]: 25.98 ml/cm^3
  VT, Two tissue compartment model [2TCM]: 21.29 ml/cm^3
WM, baseline
  VT, Logan graphical method [T* = 40 min]: 11.98 mL cm^−3
  VT, One tissue compartment model [1TCM]: 9.00 mL cm^−3

— publication PMC12140300, “Development of Carbon‐11 Labeled Pyrimidine Derivatives as Novel Positron Emission Tomography (PET) Agents Enabling Brain Sigma‐1 Receptor Imaging” (Advanced Science, 2025)
